In ChEMBL document CHEMBL1129759, “A comparative study of the solvolysis reactivity, regioselectivity, and stereochemistry of the duocarmycin a and sa alkylation subunits” (Bioorg Med Chem Lett, 1996):

Assays:
[1] = Half-life […] at pH 3.0; format: ADME, cell-free
L1210 [2] = assay: Compound was tested for its anti tumor activity against L1210 cells; format: functional, cell-based; settings: Mus musculus
L1210 [3] = assay: The compound was tested for its anti tumor activity against L1210 cells; format: functional, cell-based; settings: Mus musculus

SMILES	half-life [1] [h]	IC50 (L1210 [2]) [nM]	IC50 (L1210 [3]) [nM]
COC(=O)[C@]1(C)N=C2C(=O)C=C3N(C(=O)OC(C)(C)C)C[C@H]4C[C@@]34C2=C1O	11	2000	–
Cc1c[nH]c2c1[C@@]13C[C@@H]1CN(C(=O)OC(C)(C)C)C3=CC2=O	37	–	330
COC(=O)c1cc2c([nH]1)C(=O)C=C1N(C(=O)OC(C)(C)C)C[C@H]3C[C@]123	177	6	–
